How the values were obtained:
CHO-K1 control cells = experiment: Erk phosphorylation in CHO-K1 control cells transfected with empty pEFIN5 vector; type: cell-based; details: 1 μM; 5 min, 20 min or 1 h
[1] = target: T1, GPR86 (P2Y13) human receptor (Homo sapiens, UniProt Q9BPV8, T179M); experiment: Western blot of phosphorylated Erk1 and Erk2 in GPR86-transfected CHO-K1 cells; type: cell-based; design: expressed in transfected cells; details: for Erk phosphorylation / time of stimulation giving maximal Erk phosphorylation response: 1 μM; for concentration at which a significant effect on Erk phosphorylation was already observed / concentration giving maximal effect on Erk phosphorylation: 5 min stimulation; for concentration giving maximal effect on Erk phosphorylation: 1 nM to 10 μM tested
T1 sequence (Q9BPV8 22-354 T179M): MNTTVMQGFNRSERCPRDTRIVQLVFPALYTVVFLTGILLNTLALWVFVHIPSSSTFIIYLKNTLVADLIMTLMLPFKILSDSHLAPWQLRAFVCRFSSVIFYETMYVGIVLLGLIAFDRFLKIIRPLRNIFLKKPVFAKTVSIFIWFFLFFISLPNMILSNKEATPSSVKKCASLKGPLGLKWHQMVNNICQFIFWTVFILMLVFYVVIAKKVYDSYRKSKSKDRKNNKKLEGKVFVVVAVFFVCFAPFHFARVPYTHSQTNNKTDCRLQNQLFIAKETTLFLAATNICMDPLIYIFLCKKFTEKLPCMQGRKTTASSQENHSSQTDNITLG
Description: To investigate changes in the activation status of the MAP kinases Erk1 and Erk2 upon stimulation of the human GPR86 receptor, whole CHO-K1 transfected cell extracts were analysed by Western blotting using a specific antibody for the dually phosphorylated kinases (at Thr^202 and Tyr^204), which are the active forms of Erk. Western Blot Analysis of phosphorylated Erk1 and Erk2 proteins.
GPR86-transfected CHO-K1 cells were seeded at 1.5×10^6 cells/dish. After 24 h, the cells were serum-starved for 2 h in KRH buffer. After stimulation with the agonist, the cells were scraped in 1 ml of PBS pH 7.3 (137 mM NaCl, 2.7 mM KCl, 4.3 mM Na2HPO4.7H2O and 1.4 mM KH2PO4). The cells were recovered by centrifugation and lysed in 150 μl of Laemmli buffer (10% (w/v) glycerol, 5% (v/v) mercaptoethanol, 2.3% (w/v) SDS, 62.5 mM Tris-HCl pH 6.8). The protein concentration was determined using the method of Minamide and Bamburg (27). The same amount of protein for each condition was electrophoresed in a 12% SDS-polyacrylamide gel. Proteins were then transferred overnight at 60 V and 4° C. onto a nitrocellulose membrane using 20 mM Tris, 154 mM glycine, 20% (v/v) methanol as a transfer buffer. Immunodetection was achieved using the enhanced chemiluminescence Western blotting detection system (ECL, Amersham Phammacia Biotech) using a biotinylated-secondary mouse antibody ( 1/25,000). The monoclonal antibody specific for the dually phosphorylated forms of Erk1 and Erk2 (at Thr^202 and Tyr^204) was used at 1/1000-dilution.
In CHO-K1 cells, phosphorylated Erk1 and Erk2 had the predicted molecular mass of 44 and 42 kDa, respectively. […] GPR86-transfected CHO-K1 cells were stimulated during different times or with various concentrations of ADP and 2MeSADP or water (CONT). The effect of 100 ng/ml pertussis toxin (PTx) has been tested at 5 and 30 min in the presence of 1 μM ADP or 2MeSADP. Blotting and immunodetection were achieved as described using the enhanced chemiluminescence Western blotting detection system (ECL, Amersham Pharmacia Biotech).

SMILES	Erk1 or Erk2 phosphorylation (CHO-K1 control cells)	Erk phosphorylation [1]	time of stimulation giving maximal Erk phosphorylation response [1] [min]	concentration at which a significant effect on Erk phosphorylation was already observed [1] [nM]	concentration giving maximal effect on Erk phosphorylation [1] [µM]
CSc1nc(N)c2ncn([C@@H]3O[C@H](COP(=O)(O)OP(=O)(O)O)[C@@H](O)[C@H]3O)c2n1 [2MeSADP, 2-methylthio-ADP]	not observed	strong phosphorylation of Erk2	5	10	1
Nc1ncnc2c1ncn2[C@@H]1O[C@H](COP(=O)(O)OP(=O)(O)O)[C@@H](O)[C@H]1O [ADP]	not observed	strong phosphorylation of Erk2	5	10	1
